Results taken from ChEMBL document CHEMBL4507266, “Data for DCP probe BAY-784” (2021).

Tests used:
[1] = molecular target: Mitogen-activated protein kinase kinase kinase kinase 4 (Homo sapiens) (UniProt O95819); conditions: Compound concentration 1000.0 nM
[2] = molecular target: MAP/microtubule affinity-regulating kinase 3 (Homo sapiens) (UniProt P27448); conditions: Compound concentration 1000.0 nM
[3] = molecular target: Dual specificity mitogen-activated protein kinase kinase 3 (Homo sapiens) (UniProt P46734); conditions: Compound concentration 1000.0 nM
[4] = molecular target: Serine/threonine-protein kinase Nek9 (Homo sapiens) (UniProt Q8TD19); conditions: Compound concentration 1000.0 nM
[5] = test system: Mast/stem cell growth factor receptor Kit (Homo sapiens), P10721 [V559D,V654A]; conditions: Compound concentration 1000.0 nM
[6] = molecular target: Testis-specific serine/threonine-protein kinase 1 (Homo sapiens) (UniProt Q9BXA7); conditions: Compound concentration 1000.0 nM
[7] = molecular target: Angiopoietin-1 receptor (Homo sapiens) (UniProt Q02763); conditions: Compound concentration 1000.0 nM
[8] = test system: Mast/stem cell growth factor receptor Kit (Homo sapiens), P10721 [V559D]; conditions: Compound concentration 1000.0 nM
[9] = molecular target: Cyclin-dependent kinase 2 homolog (Plasmodium falciparum (isolate 3D7)) (UniProt P61075); conditions: Compound concentration 1000.0 nM
[10] = molecular target: Myosin light chain kinase, smooth muscle (Homo sapiens) (UniProt Q15746); conditions: Compound concentration 1000.0 nM
Chain of Myosin light chain kinase, smooth muscle (Homo sapiens) (Q15746 whole entry): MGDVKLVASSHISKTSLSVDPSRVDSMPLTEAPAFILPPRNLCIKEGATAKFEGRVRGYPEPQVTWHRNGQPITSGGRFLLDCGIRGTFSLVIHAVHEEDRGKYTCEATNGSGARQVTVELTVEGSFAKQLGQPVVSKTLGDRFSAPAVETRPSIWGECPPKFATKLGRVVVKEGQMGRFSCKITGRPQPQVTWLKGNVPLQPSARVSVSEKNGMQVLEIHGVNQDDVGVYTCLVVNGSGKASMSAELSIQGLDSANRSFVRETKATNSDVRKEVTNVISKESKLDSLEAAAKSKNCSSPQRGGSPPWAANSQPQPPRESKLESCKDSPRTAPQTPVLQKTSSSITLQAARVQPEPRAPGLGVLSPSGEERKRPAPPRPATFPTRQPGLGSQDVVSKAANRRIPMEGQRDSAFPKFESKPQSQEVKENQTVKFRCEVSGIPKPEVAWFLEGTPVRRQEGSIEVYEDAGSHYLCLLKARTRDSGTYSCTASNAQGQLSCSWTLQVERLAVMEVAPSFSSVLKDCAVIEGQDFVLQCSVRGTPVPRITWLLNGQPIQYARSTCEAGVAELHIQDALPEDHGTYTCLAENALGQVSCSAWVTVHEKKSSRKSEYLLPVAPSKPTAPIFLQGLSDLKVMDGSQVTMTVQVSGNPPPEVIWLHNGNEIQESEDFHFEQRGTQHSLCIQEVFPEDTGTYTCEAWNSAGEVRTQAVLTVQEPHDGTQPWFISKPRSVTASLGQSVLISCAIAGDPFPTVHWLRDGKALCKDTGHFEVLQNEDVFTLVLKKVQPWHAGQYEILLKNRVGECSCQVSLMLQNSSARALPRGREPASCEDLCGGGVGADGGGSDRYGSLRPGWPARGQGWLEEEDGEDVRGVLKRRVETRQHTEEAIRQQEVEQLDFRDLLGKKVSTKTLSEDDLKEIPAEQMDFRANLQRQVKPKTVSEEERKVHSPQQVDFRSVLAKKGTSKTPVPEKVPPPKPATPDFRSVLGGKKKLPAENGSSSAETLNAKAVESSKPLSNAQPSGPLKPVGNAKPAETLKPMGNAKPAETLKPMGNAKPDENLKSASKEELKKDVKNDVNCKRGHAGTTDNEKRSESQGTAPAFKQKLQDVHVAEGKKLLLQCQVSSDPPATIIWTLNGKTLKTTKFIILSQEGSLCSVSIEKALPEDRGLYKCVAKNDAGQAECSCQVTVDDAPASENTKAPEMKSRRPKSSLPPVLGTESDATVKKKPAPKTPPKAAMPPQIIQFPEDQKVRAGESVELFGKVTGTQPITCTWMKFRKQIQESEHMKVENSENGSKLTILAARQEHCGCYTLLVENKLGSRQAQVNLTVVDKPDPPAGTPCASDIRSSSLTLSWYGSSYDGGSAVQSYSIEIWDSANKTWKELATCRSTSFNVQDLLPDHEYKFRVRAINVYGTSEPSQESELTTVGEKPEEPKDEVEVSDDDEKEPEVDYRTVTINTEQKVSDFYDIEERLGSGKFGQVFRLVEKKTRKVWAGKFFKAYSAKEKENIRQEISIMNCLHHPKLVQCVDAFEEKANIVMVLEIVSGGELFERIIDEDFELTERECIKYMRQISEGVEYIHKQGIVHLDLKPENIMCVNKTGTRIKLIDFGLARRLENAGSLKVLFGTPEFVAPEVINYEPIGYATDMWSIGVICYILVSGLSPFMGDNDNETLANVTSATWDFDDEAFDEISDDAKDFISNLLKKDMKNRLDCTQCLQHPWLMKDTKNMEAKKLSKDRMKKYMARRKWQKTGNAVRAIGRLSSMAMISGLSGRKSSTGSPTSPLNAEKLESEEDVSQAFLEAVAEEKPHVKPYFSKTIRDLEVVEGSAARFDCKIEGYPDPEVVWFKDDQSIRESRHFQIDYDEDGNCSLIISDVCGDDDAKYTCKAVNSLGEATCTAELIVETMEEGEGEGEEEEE

[11] = test system: Receptor-type tyrosine-protein kinase FLT3 (Homo sapiens), P36888 [D835V]; conditions: Compound concentration 1000.0 nM
[12] = molecular target: Cyclin-dependent kinase 11A (Homo sapiens) (UniProt Q9UQ88); conditions: Compound concentration 1000.0 nM
Chain of Cyclin-dependent kinase 11A (Homo sapiens) (Q9UQ88 whole entry): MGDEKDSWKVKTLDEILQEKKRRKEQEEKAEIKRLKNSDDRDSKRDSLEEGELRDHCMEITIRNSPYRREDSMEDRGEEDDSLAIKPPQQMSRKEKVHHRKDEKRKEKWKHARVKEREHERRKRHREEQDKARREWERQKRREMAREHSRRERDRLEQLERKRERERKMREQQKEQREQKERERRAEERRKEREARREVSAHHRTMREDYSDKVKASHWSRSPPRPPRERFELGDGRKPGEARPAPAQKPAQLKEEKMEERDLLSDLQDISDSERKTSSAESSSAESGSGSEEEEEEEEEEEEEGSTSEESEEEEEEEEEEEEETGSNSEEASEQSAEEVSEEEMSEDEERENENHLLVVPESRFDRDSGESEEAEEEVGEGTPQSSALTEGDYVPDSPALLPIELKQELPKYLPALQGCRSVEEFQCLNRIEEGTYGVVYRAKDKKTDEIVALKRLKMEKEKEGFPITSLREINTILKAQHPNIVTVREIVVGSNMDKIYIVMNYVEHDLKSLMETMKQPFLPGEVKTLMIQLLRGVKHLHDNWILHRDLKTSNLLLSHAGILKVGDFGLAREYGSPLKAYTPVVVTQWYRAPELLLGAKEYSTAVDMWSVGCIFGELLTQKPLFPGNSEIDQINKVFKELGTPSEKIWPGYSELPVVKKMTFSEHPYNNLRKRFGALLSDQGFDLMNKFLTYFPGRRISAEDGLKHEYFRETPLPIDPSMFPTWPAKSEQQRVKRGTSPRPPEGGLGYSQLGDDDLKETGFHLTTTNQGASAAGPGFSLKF

[13] = molecular target: Serine/threonine-protein kinase Nek3 (Homo sapiens) (UniProt P51956); conditions: Compound concentration 1000.0 nM
Chain of Serine/threonine-protein kinase Nek3 (Homo sapiens) (P51956 whole entry): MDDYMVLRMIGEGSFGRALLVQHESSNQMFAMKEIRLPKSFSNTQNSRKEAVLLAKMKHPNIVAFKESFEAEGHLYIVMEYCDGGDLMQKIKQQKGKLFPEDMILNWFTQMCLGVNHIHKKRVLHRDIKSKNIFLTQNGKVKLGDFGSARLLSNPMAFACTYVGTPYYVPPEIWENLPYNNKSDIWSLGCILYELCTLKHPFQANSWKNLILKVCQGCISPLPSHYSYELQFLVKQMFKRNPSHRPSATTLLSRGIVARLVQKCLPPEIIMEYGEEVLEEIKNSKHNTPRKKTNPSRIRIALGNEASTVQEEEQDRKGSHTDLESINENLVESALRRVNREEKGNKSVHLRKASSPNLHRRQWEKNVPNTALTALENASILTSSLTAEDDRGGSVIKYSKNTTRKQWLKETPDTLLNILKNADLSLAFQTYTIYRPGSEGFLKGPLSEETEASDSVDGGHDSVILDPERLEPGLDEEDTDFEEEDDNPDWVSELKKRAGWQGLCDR

[14] = molecular target: Ephrin type-A receptor 1 (Homo sapiens) (UniProt P21709); conditions: Compound concentration 1000.0 nM
[15] = molecular target: Serine/threonine-protein kinase ULK1 (Homo sapiens) (UniProt O75385); conditions: Compound concentration 1000.0 nM
[16] = test system: Receptor-type tyrosine-protein kinase FLT3 (Homo sapiens), P36888 [K663Q]; conditions: Compound concentration 1000.0 nM
[17] = test system: Epidermal growth factor receptor (Homo sapiens), P00533 [UNDEFINED MUTATION]; conditions: Compound concentration 1000.0 nM
[18] = molecular target: Focal adhesion kinase 1 (Homo sapiens) (UniProt Q05397); conditions: Compound concentration 1000.0 nM
[19] = molecular target: ALK tyrosine kinase receptor (Homo sapiens) (UniProt Q9UM73); conditions: Compound concentration 1000.0 nM
[20] = molecular target: Serine/threonine-protein kinase Sgk1 (Homo sapiens) (UniProt O00141); conditions: Compound concentration 1000.0 nM
[21] = molecular target: Mitogen-activated protein kinase kinase kinase 10 (Homo sapiens) (UniProt Q02779); conditions: Compound concentration 1000.0 nM
[22] = molecular target: Ribosomal protein S6 kinase alpha-5 (Homo sapiens) (UniProt O75582); conditions: Compound concentration 1000.0 nM
Chain of Ribosomal protein S6 kinase alpha-5 (Homo sapiens) (O75582 whole entry, looked up): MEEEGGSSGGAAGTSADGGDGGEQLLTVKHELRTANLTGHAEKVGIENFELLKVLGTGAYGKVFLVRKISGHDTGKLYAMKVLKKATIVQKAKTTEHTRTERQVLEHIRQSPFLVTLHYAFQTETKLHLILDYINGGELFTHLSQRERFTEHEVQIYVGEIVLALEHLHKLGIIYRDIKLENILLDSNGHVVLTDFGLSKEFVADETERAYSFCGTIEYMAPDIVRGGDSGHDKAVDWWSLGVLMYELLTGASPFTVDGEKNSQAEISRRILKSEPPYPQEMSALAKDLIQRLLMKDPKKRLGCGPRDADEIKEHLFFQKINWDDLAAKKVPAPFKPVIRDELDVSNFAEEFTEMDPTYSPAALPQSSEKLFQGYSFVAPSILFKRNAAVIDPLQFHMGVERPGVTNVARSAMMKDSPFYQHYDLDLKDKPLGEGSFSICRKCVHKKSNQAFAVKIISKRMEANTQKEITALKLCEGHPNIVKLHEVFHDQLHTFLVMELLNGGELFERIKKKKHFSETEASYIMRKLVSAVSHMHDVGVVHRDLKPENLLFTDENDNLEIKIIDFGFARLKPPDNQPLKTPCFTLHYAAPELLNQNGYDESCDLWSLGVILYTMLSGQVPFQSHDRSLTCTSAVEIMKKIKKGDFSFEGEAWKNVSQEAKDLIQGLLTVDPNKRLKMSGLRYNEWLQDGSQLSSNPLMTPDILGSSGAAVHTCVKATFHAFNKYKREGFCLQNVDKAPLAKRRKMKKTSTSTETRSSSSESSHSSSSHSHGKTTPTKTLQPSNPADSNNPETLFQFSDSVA

[23] = molecular target: Tyrosine-protein kinase Mer (Homo sapiens) (UniProt Q12866); conditions: Compound concentration 1000.0 nM
[24] = molecular target: 3-phosphoinositide-dependent protein kinase 1 (Homo sapiens) (UniProt O15530); conditions: Compound concentration 1000.0 nM
Chain of 3-phosphoinositide-dependent protein kinase 1 (Homo sapiens) (O15530 whole entry): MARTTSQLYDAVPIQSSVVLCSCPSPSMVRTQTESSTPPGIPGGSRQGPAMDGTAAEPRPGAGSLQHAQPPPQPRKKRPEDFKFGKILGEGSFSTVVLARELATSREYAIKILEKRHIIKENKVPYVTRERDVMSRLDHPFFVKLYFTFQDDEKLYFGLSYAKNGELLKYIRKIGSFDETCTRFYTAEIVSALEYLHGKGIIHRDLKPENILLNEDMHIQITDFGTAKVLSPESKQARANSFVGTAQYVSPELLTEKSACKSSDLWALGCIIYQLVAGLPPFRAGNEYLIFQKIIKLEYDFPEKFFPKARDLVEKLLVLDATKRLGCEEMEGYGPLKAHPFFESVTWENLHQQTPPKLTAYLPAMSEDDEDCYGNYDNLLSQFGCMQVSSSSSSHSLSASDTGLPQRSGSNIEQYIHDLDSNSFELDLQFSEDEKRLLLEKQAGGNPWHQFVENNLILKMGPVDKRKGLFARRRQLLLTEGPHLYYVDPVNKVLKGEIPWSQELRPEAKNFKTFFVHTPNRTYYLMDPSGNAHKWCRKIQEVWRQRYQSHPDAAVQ

[25] = molecular target: Tyrosine-protein kinase Fyn (Homo sapiens) (UniProt P06241); conditions: Compound concentration 1000.0 nM
Chain of Tyrosine-protein kinase Fyn (Homo sapiens) (P06241 2-537 limits assumed): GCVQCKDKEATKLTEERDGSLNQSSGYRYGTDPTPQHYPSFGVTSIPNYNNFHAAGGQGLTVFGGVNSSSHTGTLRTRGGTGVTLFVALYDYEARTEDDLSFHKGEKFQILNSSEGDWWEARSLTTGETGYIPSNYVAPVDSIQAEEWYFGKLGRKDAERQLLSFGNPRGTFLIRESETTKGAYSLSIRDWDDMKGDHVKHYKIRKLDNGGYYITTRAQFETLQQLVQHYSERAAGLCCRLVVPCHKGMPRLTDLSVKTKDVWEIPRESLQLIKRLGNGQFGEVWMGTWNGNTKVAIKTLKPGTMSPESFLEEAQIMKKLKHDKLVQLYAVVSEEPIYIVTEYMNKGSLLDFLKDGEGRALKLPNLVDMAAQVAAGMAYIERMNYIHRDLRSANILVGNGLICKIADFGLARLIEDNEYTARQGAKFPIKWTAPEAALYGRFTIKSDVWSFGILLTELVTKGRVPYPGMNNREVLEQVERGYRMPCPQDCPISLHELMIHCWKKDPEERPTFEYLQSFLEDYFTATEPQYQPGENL

[26] = molecular target: Ephrin type-B receptor 3 (Homo sapiens) (UniProt P54753); conditions: Compound concentration 1000.0 nM
[27] = molecular target: Aurora kinase A (Homo sapiens) (UniProt O14965); conditions: Compound concentration 1000.0 nM
[28] = molecular target: Casein kinase I isoform gamma-3 (Homo sapiens) (UniProt Q9Y6M4); conditions: Compound concentration 1000.0 nM
[29] = molecular target: Mitogen-activated protein kinase kinase kinase 5 (Homo sapiens) (UniProt Q99683); conditions: Compound concentration 1000.0 nM
[30] = molecular target: cAMP-dependent protein kinase catalytic subunit beta (Homo sapiens) (UniProt P22694); conditions: Compound concentration 1000.0 nM
[31] = molecular target: Casein kinase II subunit alpha' (Homo sapiens) (UniProt P19784); conditions: Compound concentration 1000.0 nM
[32] = molecular target: T1, 5-hydroxytryptamine receptor 2C (Homo sapiens) (UniProt P28335); conditions: Compound concentration 10.0 uM
T1 sequence (whole entry): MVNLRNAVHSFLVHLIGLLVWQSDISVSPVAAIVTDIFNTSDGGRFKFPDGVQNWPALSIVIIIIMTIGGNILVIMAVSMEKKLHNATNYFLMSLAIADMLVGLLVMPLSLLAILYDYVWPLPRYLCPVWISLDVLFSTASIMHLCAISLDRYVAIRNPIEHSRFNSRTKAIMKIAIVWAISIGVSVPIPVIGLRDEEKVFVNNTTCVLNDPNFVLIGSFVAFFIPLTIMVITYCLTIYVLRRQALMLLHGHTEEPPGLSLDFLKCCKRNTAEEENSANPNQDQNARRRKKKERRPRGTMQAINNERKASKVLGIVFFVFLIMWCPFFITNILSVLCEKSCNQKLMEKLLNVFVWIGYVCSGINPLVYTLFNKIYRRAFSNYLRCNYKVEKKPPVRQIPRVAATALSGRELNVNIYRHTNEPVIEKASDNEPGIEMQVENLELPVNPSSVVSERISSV

[33] = molecular target: Serine/threonine-protein kinase WNK4 (Homo sapiens) (UniProt Q96J92); conditions: Compound concentration 1000.0 nM
[34] = molecular target: Serine/threonine-protein kinase RIO3 (Homo sapiens) (UniProt O14730); conditions: Compound concentration 1000.0 nM
[35] = molecular target: Ribosomal protein S6 kinase alpha-3 (Homo sapiens) (UniProt P51812); conditions: Compound concentration 1000.0 nM
[36] = molecular target: Serine/threonine-protein kinase PAK 2 (Homo sapiens) (UniProt Q13177); conditions: Compound concentration 1000.0 nM
[37] = molecular target: Serine/threonine-protein kinase SBK1 (Homo sapiens) (UniProt Q52WX2); conditions: Compound concentration 1000.0 nM
[38] = molecular target: Uncharacterized serine/threonine-protein kinase SBK3 (Homo sapiens) (UniProt P0C264); conditions: Compound concentration 1000.0 nM
[39] = molecular target: SRSF protein kinase 1 (Homo sapiens) (UniProt Q96SB4); conditions: Compound concentration 1000.0 nM

O=C(NCc1ncc(C(F)(F)F)cc1Cl)c1ccc2c(c1)C1(CCS(=O)(=O)CC1)[C@H](C1CC1)N2S(=O)(=O)c1ccc(F)cc1 [BAY-784]
inactive: residual activity [1] 91% | residual activity [2] 89% | residual activity [3] 71% | residual activity [4] 100% | residual activity [5] 100% | residual activity [6] 100% | residual activity [7] 100% | residual activity [8] 100% | residual activity [9] 94% | residual activity [10] 77% | residual activity [11] 70% | residual activity [12] 100% | residual activity [13] 100% | residual activity [14] 100% | residual activity [15] 90% | residual activity [16] 100% | residual activity [17] 97% | residual activity [18] 100% | residual activity [19] 98% | residual activity [20] 79% | residual activity [21] 100% | residual activity [22] 100% | residual activity [23] 100% | residual activity [24] 91% | residual activity [25] 100% | residual activity [26] 100% | residual activity [27] 97% | residual activity [28] 100% | residual activity [29] 100% | residual activity [30] 96% | residual activity [31] 100% | inhibition [32] 9.65% | residual activity [33] 91% | residual activity [34] 69% | residual activity [35] 100% | residual activity [36] 100% | residual activity [37] 97% | residual activity [38] 100% | residual activity [39] 72%

O=C(NCc1ncc(C(F)(F)F)cc1Cl)c1ccc2c(c1)C1(CCS(=O)(=O)CC1)[C@@H](C1CC1)N2S(=O)(=O)c1ccc(F)cc1 [BAY-786]
inactive: residual activity [1] 100% | residual activity [2] 100% | residual activity [3] 73% | residual activity [4] 72% | residual activity [5] 68% | residual activity [6] 100% | residual activity [7] 96% | residual activity [8] 85% | residual activity [9] 97% | residual activity [10] 74% | residual activity [11] 76% | residual activity [12] 100% | residual activity [13] 100% | residual activity [14] 86% | residual activity [15] 80% | residual activity [16] 100% | residual activity [17] 96% | residual activity [18] 95% | residual activity [19] 73% | residual activity [20] 77% | residual activity [21] 100% | residual activity [22] 97% | residual activity [23] 100% | residual activity [24] 92% | residual activity [25] 70% | residual activity [26] 100% | residual activity [27] 81% | residual activity [28] 100% | residual activity [29] 100% | residual activity [30] 85% | residual activity [31] 72% | inhibition [32] 16.9% | residual activity [33] 100% | residual activity [34] 72% | residual activity [35] 82% | residual activity [36] 84% | residual activity [37] 92% | residual activity [38] 100% | residual activity [39] 96%
